Results as given in EP3436445B1, “HISTONE DEMETHYLASE INHIBITORS” (Celgene Quanticel Research, Inc., priority 2016, dated 2017).

Experiments:
FBXL10 = target: T1, FBXL10 (Homo sapiens, UniProt Q8NHM5); assay: FBXL10 in vitro enzyme inhibition assay (AlphaScreen); type: biochemical; conditions: Table 3; 0.3 nM FBXL10, H3K36me2-biotin labeled peptide
T1 construct: purchased BPS Bioscience 50120
T1 sequence (Q8NHM5 1-650): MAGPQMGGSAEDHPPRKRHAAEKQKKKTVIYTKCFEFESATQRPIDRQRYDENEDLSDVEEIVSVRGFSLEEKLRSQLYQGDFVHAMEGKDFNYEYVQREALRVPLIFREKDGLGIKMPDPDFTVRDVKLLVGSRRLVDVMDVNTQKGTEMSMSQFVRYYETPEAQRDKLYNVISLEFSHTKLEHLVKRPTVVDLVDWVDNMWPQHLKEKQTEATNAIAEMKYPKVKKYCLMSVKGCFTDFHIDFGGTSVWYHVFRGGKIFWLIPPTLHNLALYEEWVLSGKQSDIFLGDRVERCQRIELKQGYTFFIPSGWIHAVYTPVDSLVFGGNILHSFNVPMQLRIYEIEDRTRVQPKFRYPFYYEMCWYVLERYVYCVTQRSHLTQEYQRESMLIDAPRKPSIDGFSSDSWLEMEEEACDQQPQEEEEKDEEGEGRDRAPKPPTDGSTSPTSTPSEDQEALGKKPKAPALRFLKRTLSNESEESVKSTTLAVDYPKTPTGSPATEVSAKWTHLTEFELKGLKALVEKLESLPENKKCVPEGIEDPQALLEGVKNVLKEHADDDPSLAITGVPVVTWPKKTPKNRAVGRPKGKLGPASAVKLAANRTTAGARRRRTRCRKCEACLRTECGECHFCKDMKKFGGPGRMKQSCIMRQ
Description: (§1) This assay determines the ability of a test compound to inhibit FBXL11, FBXL10, and PHF8 demethylase activity. Baculovirus expressed FBXL11 (GenBank Accession #NM_012308, AA1-1162) was purchased from BPS Bioscience (Cat#50102). Baculovirus expressed FBXL10 (GenBank Accession #NM_032590, AA 1-650) was purchased from BPS Bioscience (Cat #50120). Baculovirus expressed PHF8 (GenBank Accession NP_055922.1) was purchased from Active Motif (Cat#31435).
The ability of test compounds to inhibit the activity of FBXL10 was determined in 384-well plate format under the following reaction conditions: 0.3 nM FBXL10, 30 nM H3K36me2-biotin labeled peptide (Anaspec cat # 64442), 0.2 µM alpha-ketoglutaric acid in assay buffer of 50 mM HEPES, pH7.3, 0.005% Brij35, 0.5 mM TCEP, 0.2 mg/ml BSA, 50 µM sodium L-ascorbate, 5 µM ammonium iron(II) sulfate. Reaction product is determined quantitatively by AlphaScreen detection after the addition of detection reagents anti-H3K36me1 antibody, AlphaScreen® Streptavidin-coated Donor beads, and AlphaScreen® Protein A Acceptor beads in 50 mM HEPES, pH7.3, 10 mM NaCl, 0.005% Brij35, 5 mM EDTA, 2 mg/ml BSA to final 10 µg/ml beads.
The assay reaction was initiated by the following: 3 µl of the mixture of 90 nM H3K36me2-biotin labeled peptide and 0.6 µM alpha-ketoglutaric acid with 3 µl of 11-point serial diluted inhibitor in 3% DMSO are added to each well of 384 well Proxiplate (Perkin Elmer), followed by the addition of 3 µl of 0.9 nM FBXL10 to initiate the reaction. The reaction mixture is incubated at room temperature for 1 hour, and terminated by the addition of 3 µl of appropriate dilution of anti H3K36me1 antibody in 50 mM HEPES, pH7.3, 10 mM NaCl, 0.005% Brij35, 5 mM EDTA, 2 mg/ml BSA. Plates will then incubated at room temperature for 40 minutes, followed by addition of 3 µl of 50 µg/ml AlphaScreen® Streptavidin-coated Donor beads and AlphaScreen® Protein A Acceptor beads in 50 mM HEPES, pH7.3, 10 mM NaCl, 0.005% Brij35, 5 mM EDTA, 2 mg/ml BSA. Plates will then be read by EnVision Multilabel Reader in AlphaScreen mode after minimum 2 hour incubation at room temperature. The AlphaScreen signal for each well is used to determine inhibition constant (IC50).

PHF8 = target: T2, PHF8 (Homo sapiens, UniProt Q9UPP1); assay: PHF8 in vitro enzyme inhibition assay (TR-FRET); type: biochemical; conditions: Table 3; 3 nM PHF8, H3K9me1-biotin labeled peptide
T2 construct: purchased Active Motif 31435
Description: as §1
The ability of test compounds to inhibit the activity of PHF8 was determined in 384-well plate format under the following reaction conditions: 3 nM PHF8, 200 nM H3K9me1-biotin labeled peptide (Anaspec cat #64358), 0.5 µM alpha-ketoglutaric acid in assay buffer of 50 mM HEPES, pH7.3, 0.005% Brij35, 0.5 mM TCEP, 0.2 mg/ml BSA, 50 µM sodium L-ascorbate, and 5 µM ammonium iron(II) sulfate. Reaction product was determined quantitatively by TR-FRET after the addition of detection reagent Phycolink Streptavidin-allophycocyanin (Prozyme) and Europium-anti-unmodified-histone H3 lysine 9/lysine27 (H3K9/K27) antibody (PerkinElmer) in the presence of 5 mM EDTA in LANCE detection buffer (PerkinElmer) at a final concentration of 25 nM and 0.5 nM, respectively.
The assay reaction was initiated by the following: 2 µl of the mixture of 600 nM H3K9me1-biotin labeled peptide and 1.5 µM alpha-ketoglutaric acid with 2 µl of 11-point serial diluted inhibitor in 3% DMSO were added to each well of the plate, followed by the addition of 2 µl of 9 nM PHF8 to initiate the reaction. The reaction mixture was incubated at room temperature for 15 minutes, and terminated by the addition of 6 µl of 5 mM EDTA in LANCE detection buffer containing 50 nM Phycolink Streptavidin-allophycocyanin and 1 nM Europium-anti-unmodified H3K9/K27 antibody. Plates were read by EnVision Multilabel Reader in TR-FRET mode (excitation at 320 nm, emission at 615 nm and 665 nm) after 1 hour incubation at room temperature. A ratio was calculated (665/615) for each well and fitted to determine inhibition constant (IC50).

[1] = system: KDM2B-bound genes of the established Mia Paca-2 cancer cell line; assay: Mia Paca-2 pancreatic cell line expression assay for KDM2B-related genes (real-time PCR); type: cell-based; conditions: Homo sapiens; Table 4; Mia Paca-2 cells; read-out: Cellular IC50
Description: Gene expression assay to assess the ability of KDM2B small molecule inhibitors to activate the expression of KDM2B-bound genes of the established Mia Paca-2 cancer cell line.
This gene expression assay is a real-time PCR assay which quantifies the amount of messenger RNA from genes that are normally repressed by KDM2B interacting with EZH2 compared with a control GAPDH gene whose expression is not regulated by KDM2B. The amount of gene expression is correlated to the amount of small molecule inhibition of KDM2B's enzymatic activity.
The established cancer cell line Mia Paca-2 was purchased from American Type Culture Collection (ATCC) and routinely passaged according to ATCC published protocols. Cells were seeded at a density of 40,000 per 96-well. 24 hours after plating, cells received final concentrations of 20nM, 40nM, 80nM and 320nM of test compound. […] At the end of each of the compound incubation period, media was removed and cells were trypsinized according to the ATCC published protocol. mRNA was then harvested from the cell samples using a RNeasy kit (Qiagen). mRNA was quantified and qualified using a Nanodrop machine (Thermo Scientific). mRNA was converted to cDNA using the High-Capacity cDNA Reverse Transcription Kit (Applied Biosystems). […] Data was analyzed using the delta-delta Ct method to calculate fold enrichment over DMSO sample gene expression.

T2 sequence (Q9UPP1 37-1060): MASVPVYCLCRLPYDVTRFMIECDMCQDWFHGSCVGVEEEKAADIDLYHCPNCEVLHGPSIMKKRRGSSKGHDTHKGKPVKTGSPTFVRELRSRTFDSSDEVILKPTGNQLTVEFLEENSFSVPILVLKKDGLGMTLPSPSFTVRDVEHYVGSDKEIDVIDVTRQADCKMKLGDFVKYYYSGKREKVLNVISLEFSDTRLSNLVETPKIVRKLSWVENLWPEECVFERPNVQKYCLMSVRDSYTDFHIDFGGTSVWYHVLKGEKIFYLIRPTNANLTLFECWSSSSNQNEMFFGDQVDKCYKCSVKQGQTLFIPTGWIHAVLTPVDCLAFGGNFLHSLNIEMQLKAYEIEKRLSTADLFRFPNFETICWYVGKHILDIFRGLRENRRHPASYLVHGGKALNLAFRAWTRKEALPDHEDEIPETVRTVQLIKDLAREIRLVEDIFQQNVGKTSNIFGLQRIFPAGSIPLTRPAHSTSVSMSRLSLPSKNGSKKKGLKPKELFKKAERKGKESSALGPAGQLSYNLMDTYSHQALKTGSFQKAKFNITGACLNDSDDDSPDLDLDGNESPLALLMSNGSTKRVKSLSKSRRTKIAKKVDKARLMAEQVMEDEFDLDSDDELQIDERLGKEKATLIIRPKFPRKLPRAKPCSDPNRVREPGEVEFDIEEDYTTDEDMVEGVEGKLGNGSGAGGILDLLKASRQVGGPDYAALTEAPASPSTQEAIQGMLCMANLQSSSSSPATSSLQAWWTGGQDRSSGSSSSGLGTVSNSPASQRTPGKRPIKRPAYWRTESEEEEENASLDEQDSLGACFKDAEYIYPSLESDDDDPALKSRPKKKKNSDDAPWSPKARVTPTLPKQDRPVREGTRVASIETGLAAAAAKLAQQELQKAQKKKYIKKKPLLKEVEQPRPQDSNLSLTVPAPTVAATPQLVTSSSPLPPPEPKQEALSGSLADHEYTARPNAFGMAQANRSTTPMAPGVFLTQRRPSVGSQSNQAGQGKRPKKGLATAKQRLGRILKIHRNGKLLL

Structure (SMILES)	IC50 (FBXL10) [nM]	IC50 (PHF8) [nM]	IC50 [1] [nM]
Cn1cnc(-c2cc(-c3nn[nH]c3F)ccn2)c1-c1ccc(F)cc1OCC1CC1 [Example 41, 2-[5-[2-(cyclopropylmethoxy)-4-fluorophenyl]-1-methylimidazol-4-yl]-4-(5-fluoro-1H-triazol-4-yl)pyridine]	–	–	1000 to 10000
c1ccc(-c2ccccc2CCn2cnc(-c3cc(-c4c[nH]nn4)ccn3)c2)cc1 [Example 27, 2-[1-[2-(2-phenylphenyl)ethyl]imidazol-4-yl]-4-(1H-triazol-4-yl)pyridine]	100 to 1000	–	–
Fc1c(Cn2cnc(-c3cc(-c4c[nH]nn4)ccn3)c2)cccc1OC(F)(F)F [Example 26, 2-[1-[[2-fluoro-3-(trifluoromethoxy)phenyl]methyl]imidazol-4-yl]-4-(1H-triazol-4-yl)pyridine]	100 to 1000	–	–
FC(F)(F)c1[nH]nnc1-c1ccnc(-c2cn(CCc3cccc4ccccc34)cn2)c1 [Example 37, 2-[1-(2-naphthalen-1-ylethyl)imidazol-4-yl]-4-[5-(trifluoromethyl)-1H-triazol-4-yl]pyridine]	–	–	100 to 1000
Cn1cnc(-c2cc3[nH]nnc3cn2)c1-c1ccc(F)cc1 [Example 53, 5-(4-fluorophenyl)-1-methyl-4-{1H-[1,2,3]triazolo[4,5-c]pyridin-6-yl}-1H-imidazole]	100 to 1000	1000 to 10000	–
Clc1cc(Cl)cc(-n2cnc(-c3cc4[nH]nnc4cn3)c2)c1 [Example 52, 1-(3,5-dichlorophenyl)-4-{1H-[1,2,3]triazolo[4,5-c]pyridin-6-yl}-1H-imidazole]	100 to 1000	1000 to 10000	–

Further lines, results first:

IC50 (FBXL10) [nM]	IC50 (PHF8) [nM]	IC50 [1] [nM]	Structure (SMILES)
≤ 100	100 to 1000	–	Clc1ccccc1Cn1cnc(-c2cc(-c3cn[nH]n3)ccn2)c1Br [Example 55, 2-(5-bromo-1-(2-chlorobenzyl)-1H-imidazol-4-yl)-4-(2H-1,2,3-triazol-4-yl)pyridine]
≤ 100	1000 to 10000	–	c1nc(-c2cn(CC3CC3)cn2)cc2[nH]nnc12 [Example 42, 1-(cyclopropylmethyl)-4-{1H-[1,2,3]triazolo[4,5-c]pyridin-6-yl}-1H-imidazole]
≤ 100	100 to 1000	–	FC(F)(F)Oc1ccccc1CCn1cnc(-c2cc(-c3c[nH]nn3)ccn2)c1 [Example 34]
100 to 1000	–	–	CC(Cc1ccccc1)n1cnc(-c2cc(-c3c[nH]nn3)ccn2)c1 (stereo not drawn) [Example 33, 2-[1-(1-phenylpropan-2-yl)imidazol-4-yl]-4-(1H-triazol-4-yl)pyridine]
